Test: Stability of the flavonoid in aqueous L-arginine/sodium ascorbate solution at 50° C., intact amount by HPLC
Format: physicochemical
Conditions: for amount of intact flavonoid remaining, of the initial amount in the solution: dissolved in water with L-arginine and sodium ascorbate, HPLC
Procedure: A composition containing rutin, L-arginine, and ascorbate was prepared in water by mixing 0.0071 mol rutin with an aqueous solution containing 0.020 mol L-arginine, heating the mixture to 80° C. until the rutin dissolved completely, and adding 0.0010 mol sodium ascorbate.
After cooling the above solution, the stability of rutin was tested by heating the mixture to 50° C. and quantifying the amount of intact rutin remaining by HPLC after 0 h, 5 h, and 24 h.

SMILES: C[C@@H]1O[C@@H](OC[C@H]2O[C@@H](Oc3c(-c4ccc(O)c(O)c4)oc4cc(O)cc(O)c4c3=O)[C@H](O)[C@@H](O)[C@@H]2O)[C@H](O)[C@H](O)[C@H]1O [rutin]
- amount of intact flavonoid remaining, of the initial amount in the solution (5 h at 50° C.): 100%
- amount of intact flavonoid remaining, of the initial amount in the solution (24 h at 50° C.): 97.2%
- flavonoid degraded (after 24 h at 50° C., with L-arginine and sodium ascorbate): 2.8%

Reference: patent US10918654B1, “Rutin compositions” (Alps Pharmaceutical Ind. Co., Ltd., priority 2019, dated 2021)
